Measurements: patent US20060229364A1, “Antiviral compositions and methods of use” (3M Innovative Properties Company, priority 2005, published 2006)

System: Type 1 herpes virus
Assay: Another mouse study with neat ester (Example 4), treatment from 24 hours post-virus inoculum
Type: in vivo, mice
Conditions: neat composition applied 24 hours post-virus inoculum, 3 times daily for 5 days
Description: Each lesion was assigned a score ranging from 0 (normal skin) to 4 (maximal lesion intensity) defined as “Lesion score”, and two measurements, a vertical length and a horizontal length, were taken of each lesion daily from days 1 through 10. These measurements were multiplied together and the “square area” recorded, defined as “Lesion Size”. The lesion scoring was done by technicians who are unaware of which group of animals they are examining in order to eliminate bias. The occurrence of new, satellite, lesions (e.g., another lesion located anywhere other than the site of the intial lesion) were also noted during this 10-day period. The mean of the lesions score and the lesions size was calculated based on the average of the measurements taken on the eight mice.
Another mouse study was performed using propylene glycol monolaurate (Capmul PG-12) in a neat composition. The ester was applied 24 hours post-virus inoculum 3 times daily for 5 days. […] The mean day 7 lesion size was 3.1 mm2 compared to 64.4 mm2 for petrolatum vehicle control. The day 7 mean lesion score was 0.2 compared to 1.5 for a control sample containing petrolatum without an antimicrobial.

propylene glycol monolaurate
day 7 mean lesion score: 0.2 | mean day 7 lesion size: 3.1 mm2 | reduction in lesion score and size compared to a placebo ointment (in words): statistically significant reduction
